Like-named read-outs stand apart in the source and are kept apart here.
How the values were obtained:
[1] = plasma and brain unbound fractions of I-1 in nonhuman primates; type: in vitro ADME; settings: nonhuman primate, Normal NHP (n = 3)
[2] = I-1 plasma and CSF concentrations during bolus/infusion regimen in tMCAO efficacy study; type: in vivo, Macaca fascicularis; settings: for predicted I-1 [Plasma]: 22 h infusion; for Measured I-1 [CSF] / measured I-1 [Plasma]: 22 h, n = 4
Protocol: (§1) Macaques received a bolus dose of vehicle (40% PEG400 in 0.9% saline) or I-1 into a saphenous vein 2 h after occlusion (2 h prior to restoration of MCA blood flow), followed immediately by a 22 h intravenous infusion. This dosing regimen was designed to rapidly achieve and maintain pre-determined plasma and cerebrospinal fluid (CSF) steady-state concentrations of I-1 based on its pharmacokinetics previously determined in näive and MCA occluded macaques (Tables A-C below).
During MRI, vehicle or I-1 were infused into the saphenous vein via a syringe pump (TOP5500E, TOP Corp., Tokyo, Japan). Infusion following MRI was maintained via a portable, programmable IPRECIO® Dual infusion pump (DMP-100; Primetech Corp., Tokyo, Japan) ported into a jugular venous line, both being secured in a jacket. Methods for pharmacokinetic sampling and bioanalytical analysis of plasma and CSF are described below.
Blood samples (1.0 mL) were withdrawn into heparinized tubes from either the opposite cephalic or the femoral vein at 3, 6, 24, 48, 72 hours and 5 days post-occlusion. Heparinized blood was centrifuged at 4° C. at 1,800×g for 10 min. In the same animals, 0.3-0.5 mL of cerebrospinal fluid (CSF) was withdrawn at 6 and 24 hours post-occlusion. Macaques were sedated with ketamine (10 mg/kg, i.m.), CSF was collected via puncture of the cisterna magna. Plasma and CSF samples were flash frozen in liquid nitrogen and then stored at −70 C until shipment for processing. Samples were shipped on dry ice. Plasma and CSF concentrations of I-1 were determined by LC/MS/MS utilizing standard curves (performed at the Department of Bio Research, Kamakura Techno-Science, Inc. Kanagawa, Japan). Lower limits of quantitation for compound I-1 were 1.0 ng/mL and 0.1 ng/mL for plasma and CSF, respectively.

[3] = pre-efficacy pharmacokinetic study, intravenous bolus/constant rate infusion in tMCAO cynomolgus monkeys; type: in vivo, cynomolgus monkey; settings: tMCAO (n = 1); for Kp at 22 h: cynomolgus monkey, CSF/plasma, intravenous, read-out: CSF/Plasma At 22-hour End of Dosing
Protocol: as §1
We then proceeded to our key preclinical stroke efficacy model in nonhuman primates. Pre-efficacy pharmacokinetic studies obtained plasma and CSF pharmacokinetic data. The I-1 CSF concentrations were combined with receptor affinity data to estimate receptor occupancy, and the combination of CSF concentrations and associated receptor occupancies were used to set dose regimens for the efficacy study.

[4] = system: cynomolgus monkey model of transient middle cerebral artery occlusion (tMCAO); assay: Neurologic Deficit Score (NDS) after tMCAO; type: in vivo, Macaca fascicularis; settings: study Days 1 to 5, I-1-treated composite versus vehicle, p=0.11
Excerpt: Twenty-four hours and 5 days after occlusion, neurologic deficits were scored using the Neurologic Deficits Score (NDS) as described elsewhere (reference 25). The NDS was considered as a secondary efficacy endpoint.

brain A1R/A3R = assay: estimated brain receptor occupancy of I-1 in neonatal pig efficacy studies; type: in vivo
Excerpt: Receptor occupancy is a mass action relationship:
The percentage of a receptor occupied by an agonist or antagonist is a function of the drug concentration and the drug affinity for the receptor target. The challenge is that drug concentrations at the target site (in this case, brain, and CSF) can vary by species, as can affinity for the drug target. Affinity of I-1 for its receptor target can vary by as much as 5-fold between species. Accordingly, for each species, it is necessary to determine the I-1 affinity for its target as well as the concentration of I-1 at each administered dose in a relevant matrix.
Using this receptor occupancy estimate, we advanced to studies in neonatal pigs, targeting doses that would yield unbound brain and CSF concentrations that would provide a similar receptor occupancy to that associated with efficacy in the rodent models. In the pig, we had the advantage of conducting pharmacokinetic studies involving CSF collection, brain equilibrium dialysis to directly determine brain unbound extracellular fluid concentrations, plasma concentrations and finally total brain concentrations. […] This was a key study to validate the use of I-1 CSF concentrations to estimate brain receptor occupancy. In the pig efficacy studies, we achieved efficacy at estimated receptor occupancies of around 2%.

[5] = High dose group, 5.2 mg/kg, 2.8 mg/kg/h, mean ± SEM
[6] = Low dose group, 0.47 mg/kg, 0.25 mg/kg/h, mean ± SEM
[7] = Mid dose group, 1.7 mg/kg, 0.9 mg/kg/h, mean ± SEM
[8] = bolus 0.11 mg/kg / infusion 0.0582 mg/kg/hr
[9] = bolus 1.7 mg/kg / infusion 0.9 mg/kg/hr
[10] = bolus 5.2 mg/kg / infusion 2.76 mg/kg/hr

Structure (SMILES): CSc1nc(N)c2ncn([C@H]3C(O)C(O)[C@]4(CO)C[C@H]34)c2n1 (stereo in doubt) [Compound I-1]
- fraction unbound ([1]; brain, read-out: Brain Unbound Fraction): 0.56 ± 0.05
- fraction unbound ([1]; plasma, read-out: Plasma Unbound Fraction): 0.26 ± 0.05
- plasma I-1 after end of infusion ([2]; 24 h following termination of Mid and High dose infusions): Measurable concentrations
- predicted I-1 [Plasma] ([2]; High dose group, 5.2 mg/kg bolus, 2.8 mg/kg/h): 1660 ng/mL
- Measured I-1 [CSF] [2, 5]: 108 ± 35 ng/mL
- measured I-1 [Plasma] [2, 5]: 1127 ± 246 ng/mL
- predicted I-1 [Plasma] ([2]; Low dose group, 0.47 mg/kg bolus, 0.25 mg/kg/h): 150 ng/mL
- Measured I-1 [CSF] [2, 6]: 8.8 ± 2.6 ng/mL
- measured I-1 [Plasma] [2, 6]: 186 ± 24 ng/mL
- predicted I-1 [Plasma] ([2]; Mid dose group, 1.7 mg/kg bolus, 0.9 mg/kg/h): 540 ng/mL
- Measured I-1 [CSF] [2, 7]: 16.8 ± 5.7 ng/mL
- measured I-1 [Plasma] [2, 7]: 483 ± 23 ng/mL
- predicted I-1 [Plasma] ([2]; Very Low dose group, 0.11 mg/kg bolus, 0.06 mg/kg/h): 35 ng/mL
- measured I-1 [Plasma] ([2]; Very Low dose group, 0.11 mg/kg, 0.06 mg/kg/h, mean ± SEM of average over 22-hour infusion): 32 ± 11 ng/mL
- Measured I-1 [CSF] ([2]; Very Low dose group, 0.11 mg/kg, 0.06 mg/kg/h, mean ± SEM): 2.1 ± 0.4 ng/mL
- average plasma and CSF concentrations relative to targets ([2]; combined bolus/infusion regimen, all dose levels): ≤ 2 fold
- plasma/CSF ratio ([2]; correlation of I-1 plasma and CSF concentrations, FIG. 5C): approximately 10
- Kp at 22 h [3, 8]: 0.094
- Kp at 22 h [3, 9]: 0.084
- Kp at 22 h [3, 10]: 0.065
- Actual Time-Averaged Steady-State [Plasma] [3, 8]: 25 ng/mL
- Predicted Steady-State [Plasma] [3, 8]: 35 ng/mL
- Actual Time-Averaged Steady-State [Plasma] [3, 9]: 363 ng/mL
- Predicted Steady-State [Plasma] [3, 9]: 540 ng/mL
- Actual Time-Averaged Steady-State [Plasma] [3, 10]: 1812 ng/mL
- Predicted Steady-State [Plasma] [3, 10]: 1660 ng/mL
- neurological function (NDS) change [4]: improved but statistically non-significant
- estimated receptor occupancies at which efficacy was achieved (brain A1R/A3R): around 2%

— patent US20250177405A1, “METHODS OF TREATING NEUROLOGICAL AND CARDIOVASCULAR CONDITIONS” (ASTROCYTE PHARMACEUTICALS, INC., priority 2021, published 2025)
